Key:
[1] = molecular target: human adenosine A2B receptor (Homo sapiens (Human), UniProt P29275); assay: Adenosine A2B Receptor Cyclic AMP GS Assay; format: cell-based; conditions: HEK-293 cells expressing human A2B receptor; agonist NECA at 12 nM; cAMP accumulation (FRET); read-out: A2B_cAMP_EC50
Method: Stably transfected HEK-293 cells expressing the human adenosine A2B receptor (Perkin Elmer) were maintained in MEM culture medium with 10% FBS and 100 μg/ml Geneticin (Life Technologies). 18 to 24 hours prior to assay, geneticin was removed from culture. The cisbio cAMP-GS Dynamic kit utilizing the FRET (Fluorescence Resonance Energy Transfer) technology was used to measure cAMP accumulation in the cells. Compounds of the present disclosure at an appropriate concentration were mixed with 10000 cells/well in white 96 well half area plates (Perkin Elmer) for 30 min at RT gently shaking. Agonist, NECA (R&D Technologies) at 12 nM was added to each well for 60 min at RT gently shaking. Detection reagents, d2-labeled cAMP (acceptor) and anti-cAMP cryptate (donor) were added to each well for 60 min at RT gently shaking. Plates were read on Pherastar (BMG Labtech), fluorescence ratio 665/620 was calculated and EC50 determination was performed by fitting the curve of percent of control versus the log of the compound concentration using GraphPad Prism.

Adenosine A2A receptor = Adenosine A2A receptor (Homo sapiens (Human), UniProt P29274); assay: A2A Tag-lite HTRF Assay; conditions: Tag-lite Adenosine A2A labeled cells; A2A Receptor Red antagonist fluorescent ligand 12.5 nM; one-site competitive binding model; read-out: A2A_Ki
Sequence of Adenosine A2A receptor (P29274 whole entry): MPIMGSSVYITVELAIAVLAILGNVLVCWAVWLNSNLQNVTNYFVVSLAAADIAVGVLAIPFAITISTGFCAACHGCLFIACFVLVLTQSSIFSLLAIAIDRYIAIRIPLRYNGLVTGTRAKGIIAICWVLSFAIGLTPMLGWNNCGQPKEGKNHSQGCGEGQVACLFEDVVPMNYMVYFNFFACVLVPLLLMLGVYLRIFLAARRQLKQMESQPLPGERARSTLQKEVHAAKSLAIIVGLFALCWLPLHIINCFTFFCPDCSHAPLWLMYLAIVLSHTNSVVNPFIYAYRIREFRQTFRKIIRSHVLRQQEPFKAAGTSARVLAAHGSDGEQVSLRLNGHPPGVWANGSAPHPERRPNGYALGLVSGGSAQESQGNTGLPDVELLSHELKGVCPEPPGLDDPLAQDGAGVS
Excerpt: The final concentration of DMSO was 1%.

Sequence of human adenosine A2B receptor (P29275 whole entry): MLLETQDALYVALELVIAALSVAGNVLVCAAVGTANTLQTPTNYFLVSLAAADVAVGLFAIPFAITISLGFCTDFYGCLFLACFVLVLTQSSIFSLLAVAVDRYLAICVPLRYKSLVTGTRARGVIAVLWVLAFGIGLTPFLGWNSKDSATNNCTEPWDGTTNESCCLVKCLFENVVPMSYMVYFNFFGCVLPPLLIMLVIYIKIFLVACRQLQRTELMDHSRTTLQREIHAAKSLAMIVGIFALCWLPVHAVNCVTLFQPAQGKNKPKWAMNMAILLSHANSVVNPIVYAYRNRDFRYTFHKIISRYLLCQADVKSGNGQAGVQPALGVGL

Row | Structure (SMILES) | EC50 [1] | Ki (Adenosine A2A receptor)
1 | CCc1ncoc1-c1c(-c2cccc(C#N)c2)nc(N)n2nc(Cc3ccccn3)nc12 [Example 82, 3-(5-Amino-8-(4-ethyloxazol-5-yl)-2-(pyridin-2-ylmethyl)-[1,2,4]triazolo[1,5-c]pyrimidin-7-yl)benzonitrile] | < 10 nM | < 10 nM
2 | N#Cc1cccc(-c2nc(N)n3nc(C4CCOC4)nc3c2-c2ccncc2)c1 (stereo not drawn) [Example 70, 3-(5-Amino-8-(pyridin-4-yl)-2-(tetrahydrofuran-3-yl)-[1,2,4]triazolo[1,5-c]pyrimidin-7-yl)benzonitrile] | 10 to 100 nM | < 10 nM
3 | Cc1cccnc1Cc1nc2c(-c3ocnc3C)c(-c3cccc(C#N)c3)nc(N)n2n1 [Example 84, 3-(5-Amino-8-(4-methyloxazol-5-yl)-2-((3-methylpyridin-2-yl)methyl)-[1,2,4]triazolo[1,5-c]pyrimidin-7-yl)benzonitrile] | < 10 nM | < 10 nM
4 | N#Cc1cccc(-c2nc(N)n3nc(C(NCCO)c4ccccc4)nc3c2-c2ccncc2)c1 (stereo not drawn) [Example 47, 3-(5-Amino-2-((2-hydroxyethylamino)(phenyl)methyl)-8-(pyridin-4-yl)-[1,2,4]triazolo[1,5-c]pyrimidin-7-yl)benzonitrile] | < 10 nM | < 10 nM
5 | CN(Cc1cccc(F)c1Cc1nc2c(-c3ccncn3)c(-c3cccc(C#N)c3)nc(N)n2n1)S(C)(=O)=O [Example 74, N-(2-((5-Amino-7-(3-cyanophenyl)-8-(pyrimidin-4-yl)-[1,2,4]triazolo[1,5-c]pyrimidin-2-yl)methyl)-3-fluorobenzyl)-N-methylmethanesulfonamide] | < 10 nM | < 10 nM
6 | CN1CC(=O)N(Cc2cccc(F)c2Cc2nc3c(-c4ccncn4)c(-c4cccc(C#N)c4)nc(N)n3n2)C1=O [Example 87, 3-(5-Amino-2-(2-fluoro-6-((3-methyl-2,5-dioxoimidazolidin-1-yl)methyl)benzyl)-8-(pyrimidin-4-yl)-[1,2,4]triazolo[1,5-c]pyrimidin-7-yl)benzonitrile] | < 10 nM | < 10 nM
7 | Cc1cc(-c2c(-c3ccccc3)nc(N)n3cc(-c4ccccc4)nc23)ccn1 [Example 10, 8-(2-Methylpyridin-4-yl)-2,7-diphenylimidazo[1,2-c]pyrimidin-5-amine] | 100 to 1000 nM | < 10 nM
8 | CCNC(=O)c1cn2c(N)nc(-c3cccc(C#N)c3)c(-c3ccnn3C(C)C)c2n1 [Example 36, 5-Amino-7-(3-cyanophenyl)-N-ethyl-8-(1-isopropyl-1H-pyrazol-5-yl)imidazo[1,2-c]pyrimidine-2-carboxamide] | 10 to 100 nM | < 10 nM
9 | Nc1nc(-c2ccncc2)c(-c2ccncc2)c2nccn12 [Example 5, 7,8-Di(pyridin-4-yl)imidazo[1,2-c]pyrimidin-5-amine] | 10 to 100 nM | 10 to 100 nM
10 | COC(=O)c1cc(-c2cn3c(N)nc(-c4ccccc4)c(-c4ccncc4)c3n2)on1 [Example 12, Methyl 5-(5-amino-7-phenyl-8-(pyridin-4-yl)imidazo[1,2-c]pyrimidin-2-yl)isoxazole-3-carboxylate] | – | 10 to 100 nM
11 | N#Cc1cccc(-c2nc(N)n3nc(Cc4ccccn4)nc3c2-c2cnn3ncccc23)c1 [Example 60, 3-(5-Amino-8-(pyrazolo[1,5-b]pyridazin-3-yl)-2-(pyridin-2-ylmethyl)-[1,2,4]triazolo[1,5-c]pyrimidin-7-yl)benzonitrile] | 10 to 100 nM | < 10 nM
12 | CCn1nccc1-c1c(-c2cccc(C#N)c2)nc(N)n2nc(Cc3ncccc3F)nc12 [Example 52, 3-(5-Amino-8-(1-ethyl-1H-pyrazol-5-yl)-2-((3-fluoropyridin-2-yl)methyl)-[1,2,4]triazolo[1,5-c]pyrimidin-7-yl)benzonitrile] | < 10 nM | < 10 nM
13 | CCNC(=O)c1cn2c(N)nc(-c3ccccc3)c(C3CCN(C(N)=O)CC3)c2n1 [Example 16, 5-Amino-8-(1-carbamoylpiperidin-4-yl)-N-ethyl-7-phenylimidazo[1,2-c]pyrimidine-2-carboxamide] | 100 to 1000 nM | < 10 nM
14 | Cc1nc(CO)c(-c2c(-c3cccc(C#N)c3)nc(N)n3nc(Cc4ccccn4)nc23)o1 [Example 62, 3-(5-Amino-8-(4-(hydroxymethyl)-2-methyloxazol-5-yl)-2-(pyridin-2-ylmethyl)-[1,2,4]triazolo[1,5-c]pyrimidin-7-yl)benzonitrile] | < 10 nM | < 10 nM
15 | CCOc1ccc(-c2cnc3c(-c4ccnc(C)c4)c(-c4ccccc4)nc(N)n23)cc1 [Example 13, 3-(4-Ethoxyphenyl)-8-(2-methylpyridin-4-yl)-7-phenylimidazo[1,2-c]pyrimidin-5-amine] | – | 10 to 100 nM
16 | N#Cc1cccc(-c2nc(N)n3nc(C(O)c4c(F)cccc4F)nc3c2-c2ccncn2)c1 (single isomer, unassigned) [Example 77, 3-(5-Amino-2-((2,6-difluorophenyl)(hydroxy)methyl)-8-(pyrimidin-4-yl)-[1,2,4]triazolo[1,5-c]pyrimidin-7-yl)benzonitrile] | 10 to 100 nM | –
17 | CCNC(=O)c1cn2c(N)nc(-c3ccccc3)c(-c3cc(C)[n+]([O-])c(C)c3)c2n1 [Example 23, 4-(5-Amino-2-(ethylcarbamoyl)-7-phenylimidazo[1,2-c]pyrimidin-8-yl)-2,6-dimethylpyridine 1-oxide] | – | < 10 nM
18 | Cc1cc(-c2c(-c3cnc4c(c3)CCN4)nc(N)n3ccnc23)cc(C)n1 [Example 2, 7-(2,3-Dihydro-1H-pyrrolo[2,3-b]pyridin-5-yl)-8-(2,6-dimethylpyridin-4-yl)imidazo[1,2-c]pyrimidin-5-amine] | – | 100 to 1000 nM
19 | Cc1cc(-c2c(-c3cnn(C)c3)nc(N)n3ccnc23)ccn1 [Example 9, 7-(1-Methyl-1H-pyrazol-4-yl)-8-(2-methylpyridin-4-yl)imidazo[1,2-c]pyrimidin-5-amine] | – | 10 to 100 nM
20 | Cc1occc1-c1nc(N)n2ccnc2c1-c1ccncc1 [Example 6, 7-(2-Methylfuran-3-yl)-8-(pyridin-4-yl)imidazo[1,2-c]pyrimidin-5-amine] | – | 10 to 100 nM

Second part, the compound after the results:

Row | EC50 [1] | Ki (Adenosine A2A receptor) | Structure (SMILES)
21 | 100 to 1000 nM | < 10 nM | CCNC(=O)c1nc2c(-c3ccnc(OC)c3)c(-c3cccc(C#N)c3)nc(N)n2c1-c1ccccn1 [Example 19, 5-Amino-7-(3-cyanophenyl)-N-ethyl-8-(2-methoxypyridin-4-yl)-3-(pyridin-2-yl)imidazo[1,2-c]pyrimidine-2-carboxamide]
22 | < 10 nM | < 10 nM | CCCn1nccc1-c1c(-c2cccc(C#N)c2)nc(N)n2cc(C(=O)NCC)nc12 [Example 37, 5-Amino-7-(3-cyanophenyl)-N-ethyl-8-(1-propyl-1H-pyrazol-5-yl)imidazo[1,2-c]pyrimidine-2-carboxamide]
23 | 100 to 1000 nM | < 10 nM | CCNC(=O)c1cn2c(N)nc(-c3cccc(C#N)c3)c(-c3ccc(C(N)=O)cc3)c2n1 [Example 32, 5-Amino-8-(4-carbamoylphenyl)-7-(3-cyanophenyl)-N-ethylimidazo[1,2-c]pyrimidine-2-carboxamide]
24 | < 10 nM | < 10 nM | CCNC(=O)c1cn2c(N)nc(-c3cccc(C#N)c3)c(-c3ccncc3F)c2n1 [Example 28, 5-Amino-7-(3-cyanophenyl)-N-ethyl-8-(3-fluoropyridin-4-yl)imidazo[1,2-c]pyrimidine-2-carboxamide]
25 | < 10 nM | – | N#Cc1cccc(-c2nc(N)n3nc(C(O)c4c(F)cccc4F)nc3c2-c2ccncn2)c1 (single isomer, unassigned) [Example 76, 3-(5-Amino-2-((2,6-difluorophenyl)(hydroxy)methyl)-8-(pyrimidin-4-yl)-[1,2,4]triazolo[1,5-c]pyrimidin-7-yl)benzonitrile]
26 | < 10 nM | < 10 nM | COc1cccc(-c2nc(N)n3ccnc3c2-c2ccncc2)c1 [Example 4, 7-(3-Methoxyphenyl)-8-(pyridin-4-yl)imidazo[1,2-c]pyrimidin-5-amine]
27 | < 10 nM | < 10 nM | CCNC(=O)c1cn2c(N)nc(-c3cccc(C#N)c3)c(-c3ccncc3)c2n1 [Example 26, 5-Amino-7-(3-cyanophenyl)-N-ethyl-8-(pyridin-4-yl)imidazo[1,2-c]pyrimidine-2-carboxamide]
28 | 10 to 100 nM | < 10 nM | CCNC(=O)c1nc2c(-c3ccnc(OC)c3)c(-c3cccc(C#N)c3)nc(N)n2c1OCCO [Example 17, 5-Amino-7-(3-cyanophenyl)-JV-ethyl-3-(2-hydroxyethoxy)-8-(2-methoxypyridin-4-yl)imidazo[1,2-c]pyrimidine-2-carboxamide]
29 | – | 10 to 100 nM | CCOC(=O)c1cn2c(N)nc(-c3ccccc3)c(-c3ccnc(C)c3)c2n1 [Example 11, Ethyl 5-amino-8-(2-methylpyridin-4-yl)-7-phenylimidazo[1,2-c]pyrimidine-2-carboxylate]
30 | – | 10 to 100 nM | Cc1cc(-c2c(-c3ccccc3)nc(N)n3c(CN4CCOCC4)cnc23)cc(C)n1 [Example 3, 8-(2,6-Dimethylpyridin-4-yl)-3-(morpholinomethyl)-7-phenylimidazo[1,2-c]pyrimidin-5-amine]
31 | – | 100 to 1000 nM | Nc1nc(-c2cc3ccccc3o2)c(-c2ccncc2)c2nccn12 [Example 8, 7-(Benzofuran-2-yl)-8-(pyridin-4-yl)imidazo[1,2-c]pyrimidin-5-amine]

Source: patent US11673894B2, “Imidazopyrimidines and triazolopyrimidines as A2A / A2B inhibitors” (Incyte Corporation, priority 2018, dated 2023)
